From patent US8372406B2, “Antitumoral and antiviral peptides” (priority 2004, dated 2013)

Legend:
[1] = test system: R388D1 cells (lymphoid neoplasm of a mouse); experiment: Clonogenic activity of tumor cells, interaction with cyclophosphamide; format: cell-based; details: clones counted after 7 days; for influence upon the cloning process (clonogenic activity): taken separately
[2] = test system: mice tumor syngeneic graft; experiment: Growth of mice tumor syngeneic graft (alloferon research); details: mouse, in vivo
[3] = test system: leucocytes of a human; experiment: Interferon in vitro synthesis by human leucocytes (interferonogenic activity); format: cell-based; details: 0.01-10 microgram/ml, 24 hours, 6 donated blood samples
[4] = test system: tumor cells; experiment: In vitro effect of alloferon on tumor cell proliferation; format: cell-based; details: depending on concentration in cultural media
[5] = test system: R388D1-type tumor cells; experiment: In vitro influence on tumor cells proliferation (mass culture, cell counts); format: cell-based, mouse
Experimental: Object of instant experiments is the comparative analysis of influence of allostatin and alloferon on tumor cells proliferation. Effects of allostatin-1 and alloferon-1 in concentrations 0.001, 0.01, 0.1, 1, and 10 microgram per ml on proliferative activity in a mass culture of R388D1-type tumor cells were compared. 5000 cells suspended in 2 ml of […] medium were seed into wells of 24-socket plates. Medium used for the experiments comprises 5% fetal calf serum produced by firm “Biolot”. Preparations were introduced into wells in 0.2 ml of the sane medium immediately after inoculation, and, in control, equivalent amount of the medium was introduced without medications. Number of cells in 1 ml of incubating medium was estimated by means of hemocytometric camera. Average number of cells in 1 ml of incubating medium after 21, 44, 99 and 144 hours after beginning of the experiment was estimated on the base of 3 independent measurements.
FIG. 3 presents a typical view of allostatin and alloferon influence on growth dynamics of tumor cell population. As an evaluation indicator of anti-proliferative activity of the medication, the value of a growth multiplicity of the population for 90 hours was selected, which value is determined as a ratio of a number of cells in a well in the beginning and at the end of the incubation time. […]

[6] = test system: tumor cells of the syngeneic line R388D1; experiment: Antitumoral action on transplanted tumors in mice; format: in vivo, mouse (line DBA-1)
Experimental: Each of laboratory mouse (line DBA-1) was subcutaneously injected by 3000 tumor cells of the syngeneic line R388D1. Next day mice were separated into 4 experimental groups. Mice of the first group have got only allostatin in a subcutaneous way in a dosage on 25 microgram at 4, 11 and 18 day after tumor cell transplantation. Second group has got a combination of cytostatic agents, cyclophosphamide (0.56 mg), doxorubicine (0.036 mg) and vincrystine (1.05 microgram) on the day of transplantation and after 7, 14 and 21 days. Third group has got allostatin and combination of cytostatic agents in the same way. Mice of the fourth group (control group) were injected by the solvent (0.9% NaCl) in the same days.

O=P1(N(CCCl)CCCl)NCCCO1 (stereo not drawn) [cyclophosphamide, reference compound]
influence upon the cloning process (clonogenic activity) [1]: Neither cyclophosphamide, nor allostatin taken separately, had a significant influence

alloferon: Known immunomodulating peptide, SEQ ID NO 12; closest analogue, histidine and valine in positions 6 and 11 (HGVSGHGQHGVHG; Alloferon-1; listed as Calliphora vicina)
growth of mice tumor syngeneic graft [2]: depresses the growth | interferonogenic activity (allostatin vs alloferon) [3]: have no significant difference | proliferation of tumor cells [4]: may both inhibit (at high concentrations) and stimulate (at low concentrations)

allostatin: Linear 13-amino-acid peptide, SEQ ID NO 1; differs from alloferon-1 by tryptophan at position 6 and threonine at position 11 (HGVSGWGQHGTHG; Synthetic construct designed on the basis of the peptides SEQ ID NO 2-12 comparison)
clonogenic activity of tumor cells ([1]; allostatin in combination with cyclophosphamide): significantly decreased a clonogenic activity of tumor cells, proportionally to allostatin dose | influence upon the cloning process (clonogenic activity) [1]: Neither cyclophosphamide, nor allostatin taken separately, had a significant influence | growth of the tumor cell population ([5]; 10 microgram/ml, over the observation period): almost completely stopped the growth | anti-proliferative activity relative to alloferon (growth multiplicity of the population) ([5]; concentrations of 0.001-1 mkg/ml, growth multiplicity for 90 hours): 3-7 times | mice with formed tumors during observation period ([6]; allostatin 25 microgram s.c. (days 4, 11, 18) combined with cytostatics (cyclophosphamide, doxorubicine, vincrystine)): 40% | tumor formation ([6]; allostatin or cytostatics given separately, DBA-1 mice, 3000 R388D1 cells subcutaneously): tumors were formed after some delays, and moderate part of animals has not exhibited tumor formation | antitumoral action ([6]; combination of allostatin and cytostatics): strong and in the most cases irreversible antitumoral action | interferonogenic activity (allostatin vs alloferon) [3]: have no significant difference
